According to patent US11161839B2, “2-quinolone derived inhibitors of BCL6” (Cancer Research Technology Limited, priority 2017, dated 2021):

Molecular target: BCL6 (Homo sapiens (Human), UniProt P41182)
Assay: assays described in the Examples section (not specified which)
Details: tested compounds outside desired/preferred activity
Description: DC50 values (compound concentration at which 50% of endogenous BCL6 protein is degraded) were determined in SUDHL-4 cells (American Type Culture Collection) in an immunofluorescence-based assay using an InCell2200 high content imaging system (GE Healthcare). Briefly, 40 μL of lymphoma suspension cells cultured in RPMI 1640-10% FBS (Sigma-Aldrich or PAN Biotech UK Ltd) were platted on fibronectin (Sigma catalogue F1141)-coated 384 well Cell Carrier Ultra plate (Perkin Elmer catalogue 6057300) at 1.2 104 cells/well. After 20 hours cell culture at 37° C./C02 incubator, compounds were dispensed in the cell culture plate using ECHO550 acoustic dispenser (Labcyte, Inc.), as 8 point-concentration response (ranging from 5 nM to 10 μM) in 0.67% final DMSO concentration. Cells were incubated with compound for 2 hours at 37° C./C02 incubator followed by fixation in 4.5% formaldehyde (37% formaldehyde solution, Sigma catalogue F8775) at room temperature for 15 min. After fixing, cells were washed in 1×TBS (Tris Buffer Saline) using a Power Washer 384 (Tecan Group Ltd). Blocking and cell permeabilisation were performed by incubating the fixed cells for 1 hour at room temperature in 1×TBS, 5% BSA, 1% Triton X100, followed by three washes on PW384 plate washer. Primary and secondary antibodies were prepared in 1×TBS, 1% BSA, 0.2% Triton X100. BCL6 expression was detected by incubating the cells for 1 h30 with BCL6 rabbit polyclonal antibody (Sigma Catalogue HPA004899) at 1:250, 0.8 μg/ml, followed by 1 hour in chicken anti-Rabbit Alexa 488 conjugated antibody (Life Technology) at 1:500. After incubation in each antibody, cells were washes four times in 1×TBS-0.05% tween on PW384 plate washer. Cells were finally incubated for 60 min with nuclear staining RedDot2 dye (Biotium) at 0.5× the stock concentration in 1×TBS. BCL6 expression in the absence or presence of compound was detected on InCell2200 with 20× objective and quantified on InCell Analyser 3.7.2 workstation (GE Healthcare). The % response at each concentration was calculated by normalising BCL6 expression in the presence of compound to the appropriate high (DMSO) and low (DMSO with 7 μM CCT369260) controls.
The volume of medium containing 2000 cells in the control well was calculated and this volume of cells was transferred from every well of the assay plates to the corresponding well of the fresh plates containing compound. After 14 days, CellTiter Glo reagent (Promega) was added to the medium in each well of the assay plate at a ratio of 1:2, mixed on a plate shaker, then incubated at room temperature for 10 minutes. Luminescence was measured using an Envision plate reader (Perkin Elmer) and the relative luminescence at each compound concentration, compared to DMSO alone, was calculated. IC50 were determined using a 4-parameter curve fit in Dotmatics (Bishops Stortford, UK).

| activity in the assays described in the Examples section | SMILES |
| --- | --- |
| not to exhibit the preferred activity | Cn1c(=O)cc(NCc2ncccn2)c2cc(Nc3ccnc(Cl)c3C#N)ccc21 [2-chloro-4-[[1-methyl-2-oxo-4-(pyrimidin-2-ylmethylamino)-6-quinolyl]amino]pyridine-3-carbonitrile] |
| not to exhibit the preferred activity | CCNc1cc(=O)n(C)c2ccc(Nc3ccnc(Cl)c3C#N)nc12 [2-chloro-4-((8-(ethylamino)-5-methyl-6-oxo-5,6-dihydro-1,5-naphthyridin-2-yl)amino)nicotinonitrile] |
| did not exhibit the desired activity | CC(CN(C)C)Nc1cc(=O)n(C)c2ccc(Nc3ccnc(Cl)c3C#N)cc12 (stereo not drawn) [2-chloro-4-((4-((1-(dimethylamino)propan-2-yl)amino)-1-methyl-2-oxo-1,2-dihydroquinolin-6-yl)amino)nicotinonitrile] |
| did not exhibit the desired activity | Cn1c(=O)cc(NC2CCCNC2=O)c2cc(Nc3ccnc(Cl)c3C#N)ccc21 (stereo not drawn) [2-chloro-4-((1-methyl-2-oxo-4-((2-oxopiperidin-3-yl)amino)-1,2-dihydroquinolin-6-yl)amino)nicotinonitrile] |
| did not exhibit the desired activity | CNC(=O)CNc1cc(=O)[nH]c2ccc(Nc3ccnc(Cl)c3C#N)cc12 [2-((6-((2-chloro-3-cyanopyridin-4-yl)amino)-2-oxo-1,2-dihydroquinolin-4-yl)amino)-N-methylacetamide] |
| not to exhibit the preferred activity | CN1CCC(Nc2cc(=O)n(C)c3ccc(Nc4ccnc(Cl)c4C#N)cc23)C1=O (stereo not drawn) [2-chloro-4-((1-methyl-4-((1-methyl-2-oxopyrrolidin-3-yl)amino)-2-oxo-1,2-dihydroquinolin-6-yl)amino)nicotinonitrile] |
